Data as given in PMC5394417, “Investigating the molecular mechanism of positive and negative allosteric modulators in the calcium-sensing receptor dimer” (Scientific Reports, 2017).
Values joined by “and” are separate entries in the source; they are usually repeats but may differ in a detail not shown here. Identical values can stand only once.

Molecular target: T1, HA-L797A CaSR mutant (Rattus norvegicus, UniProt P48442, L797A)
T1 construct: mGluR5 signal peptide (N); expressed in transfected cells; host or cells: HEK293T
T1 sequence (P48442 20-1079 L797A): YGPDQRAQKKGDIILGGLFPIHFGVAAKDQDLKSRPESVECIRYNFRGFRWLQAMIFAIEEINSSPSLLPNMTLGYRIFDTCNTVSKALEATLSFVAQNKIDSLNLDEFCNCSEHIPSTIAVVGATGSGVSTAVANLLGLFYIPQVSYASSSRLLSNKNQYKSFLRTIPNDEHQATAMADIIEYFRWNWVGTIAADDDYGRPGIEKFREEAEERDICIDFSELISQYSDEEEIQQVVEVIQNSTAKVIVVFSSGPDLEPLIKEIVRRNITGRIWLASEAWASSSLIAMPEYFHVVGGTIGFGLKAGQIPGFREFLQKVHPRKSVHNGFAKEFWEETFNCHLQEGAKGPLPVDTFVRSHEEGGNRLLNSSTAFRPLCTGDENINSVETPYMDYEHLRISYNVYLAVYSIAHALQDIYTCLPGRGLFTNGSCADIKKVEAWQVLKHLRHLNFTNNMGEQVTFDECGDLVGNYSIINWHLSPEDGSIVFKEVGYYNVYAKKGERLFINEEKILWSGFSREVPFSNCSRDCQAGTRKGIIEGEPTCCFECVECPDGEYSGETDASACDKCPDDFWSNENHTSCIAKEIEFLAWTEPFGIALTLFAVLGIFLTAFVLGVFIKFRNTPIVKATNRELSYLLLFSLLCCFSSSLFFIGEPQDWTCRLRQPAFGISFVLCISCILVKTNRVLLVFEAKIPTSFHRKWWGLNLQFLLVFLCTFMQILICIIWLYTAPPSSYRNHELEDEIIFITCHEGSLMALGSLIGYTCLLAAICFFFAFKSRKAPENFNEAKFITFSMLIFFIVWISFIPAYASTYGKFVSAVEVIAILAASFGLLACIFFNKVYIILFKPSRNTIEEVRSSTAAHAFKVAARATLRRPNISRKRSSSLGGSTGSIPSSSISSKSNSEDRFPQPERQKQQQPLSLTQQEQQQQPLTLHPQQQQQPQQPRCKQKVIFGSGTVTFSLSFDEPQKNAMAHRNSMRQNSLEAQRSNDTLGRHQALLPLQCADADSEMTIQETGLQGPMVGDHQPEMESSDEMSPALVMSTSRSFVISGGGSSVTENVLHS
Assay: IP-One assay, HEK293T transiently transfected
Type: cell-based

For `[Ca+2]` [Ca^2+], the EC50 (Ca^2+ alone) was 11.7 mM, the “Hill coefficient ± S.E.M.” value (Ca^2+ alone) was 3.22 ± 0.71 and the “pEC50 ± S.E.M.” value (Ca^2+ alone) was 1.94 ± 0.04. For the same molecule, the “Max ± S.E.M.” value (normalized to maximum response of WT CaSR) was 25% and 25 ± 3.5%.
